Experimental data as given in patent US20040091479A1, “T-cell epitope of the papillomavirus l1 and e7 protein and use thereof in diagnostics and therapy” (priority 2000, published 2004).

Columns and labels:
[1] = tested on: peptide-stimulated murine CD8 T cells; experiment: Restimulating HPV18 peptide-stimulated murine T cells with peptide-presenting RMA cells (example 16); format: cell-based; settings: for reactive CD8-positive T cells (IFNγ, FACScan): RMA cells as antigen-presenting cells, FIG. 15; for T cell epitope assignment: conclusion from FIG. 15
Experimental: In analogy with example 5, murine T cells derived from CVLP-inoculated mice were stimulated with L1 or E7 peptide pools in the added presence of antigen-presenting cells. The cells were then restimulated with the peptides given on the X axis in FIG. 15 (Q3 and Q4 in the upper part of FIG. 15 and L1474E71-8, E72-11 and E71-8 in the lower part of FIG. 15) and also antigen-presenting cells (RMA). Cells which were only incubated with buffer served as the negative control.
The experiment was also analyzed in analogy with example 5, with the reactive CD8-positive cells being determined by means of antibody staining and FACScan.

[2] = tested on: peptide-stimulated murine CD8-positive T cells; experiment: Restimulating HPV18 peptide-stimulated murine T cells with peptide-presenting LKK cells (IFNγ FACScan); format: cell-based, C3H mice; settings: for proportion of CD8-positive T cells reactive on the basis of IFNγ expression: 1 μg peptide/ml, LKK cells, T cells of HPV18 CVLP-inoculated C3H mice, FIG. 3, 4; for T cell epitope assignment: conclusion from FIG. 3, 4
Experimental: Murine T cells (4×10^5) derived from C3H mice inoculated with HPV18 L1ΔCDIE71-53DI CVLPs and HPV18 L1ΔCDIE71-6ODI CVLPs were stimulated for 5 weeks with HPV18 L1 or E7 peptide pools at 37° C., with the weekly addition of 1 μg of each individual peptide/ml and 10^5 antigen-presenting cells (irradiated splenocytes), and harvested. The cells were then restimulated, at 37° C. and in 100 μl of medium, with 1 μg of the peptides given on the X axis in FIG. 3/ml and 10^5 antigen-presenting cells (LKK) in the presence of 10 IU of IL2/ml. Cells which were only incubated with buffer served as the negative control.
(§1) 1 μl of monensin (300 μm) was added after an hour. The cells were incubated at 37° C. for a further 5 hours. The cells were then fixed and permeabilized and stained with α-mouse CD8/PE, with α-mouse CD4/cychrome and with α-mouse interferony/FITC. The labeling of the cells was analyzed in a FACScan Calibur and the results of the measurement were analyzed using Cellquest software.

[3] = tested on: CVLP-stimulated T cells (CD4-positive); experiment: Restimulating HPV16 CVLP-stimulated T cells with BLCL presenting HPV16 peptide pools (example 7); format: cell-based, human; settings: peptide common to two reactive HPV16 pools; CD4/IFNγ
Description: In analogy with example 6, human T cells derived from a non-HLA-typed blood donor were stimulated with HPV16L1ΔC*E71-55 CVLPs and harvested.
The 20mer peptides P1 to 51 were assembled into peptide pools A to H and 1 to 7, respectively, in accordance with the following matrix
The T cells were then restimulated as described in example 6, fixed, permeabilized and stained. The analysis also took place as described in example 6.

[4] = tested on: peptide-stimulated CD8-positive murine T cells; experiment: Restimulating HPV16 L1 peptide-stimulated murine T cells with peptide-presenting JAWS cells (IFNγ FACScan); format: cell-based, C57BL/6 mice; settings: for proportion of CD8-positive T cells reactive on the basis of IFNγ expression: 1 μg peptide/ml, JAWS cells, T cells of HPV16L1ΔC*E71-55 CVLP-inoculated C57BL/6 mice, FIG. 1; for T cell epitope assignment: conclusion from FIG. 1
Experimental: Murine T cells (4×10^5) derived from HPV16L1ΔC*E71-55 CVLP-inoculated C57BL/6 mice were stimulated for 5 weeks with HPV16 L1 peptide pools at 37° C., with the weekly addition of 1 μg of each individual peptide/ml and 10^5 antigen-presenting cells (irradiated splenocytes), and harvested. The cells were subsequently restimulated, in 100 μl of medium at 37° C., with 1 μg of the peptides given on the X axis in FIG. 1/ml and 10^5 antigen-presenting cells (JAWS) in the presence of 10 IU of IL2/ml. Cells which were only incubated with buffer serve as the negative control.
as §1, with “After an hour, 1” for “1”, “μM)” for “μm)”, “added.” for “added after an hour.”, “interferon γ/FITC.” for “interferony/FITC.”, “caliber” for “Calibur”, “measurements” for “measurement”

FYHAGSSRLLTVGNPYFRVP [Q4, HPV18 L1 34-53]
reactive CD8-positive T cells (IFNγ, FACScan) [1]: brought about a restimulation | T cell epitope assignment [1]: contain an H2b-restricted cytotoxic T cell epitope

SSADDLRAFQQLFLNTLSFV [Q51, HPV18 E7 78-97]
proportion of CD8-positive T cells reactive on the basis of IFNγ expression [2]: brought about a restimulation | T cell epitope assignment [2]: contain H2k-restricted cytotoxic T cell epitopes

ASSNYFPTPSGSMVTSDAQI [P27, HPV16 L1 287-306]
T cell epitope assignment [3]: contain a T helper epitope

LELINTVIQDGDMVDTGFGA [P18, HPV16 L1 188-207]
proportion of CD8-positive T cells reactive on the basis of IFNγ expression [4]: brought about a restimulation | T cell epitope assignment [4]: contain H2b-restricted cytotoxic T cell epitopes | T cell epitope assignment [3]: contain a T helper epitope

QPLGVGISGHPLLNKLDDTE [P11, HPV16 L1 111-130]
T cell epitope assignment [3]: contain a T helper epitope

GDSLFFYLRREQMFVRHLFN [P23, HPV16 L1 243-262]
T cell epitope assignment [3]: contain a T helper epitope

MHGPKATL [E71-8, HPV18 E7 1-8]
reactive CD8-positive T cells (IFNγ, FACScan) [1]: brought about a restimulation | T cell epitope assignment [1]: contain an H2b-restricted cytotoxic T cell epitope

VGNPYFRVPAGGGNKQDIPK [Q5, HPV18 L1 45-64]
proportion of CD8-positive T cells reactive on the basis of IFNγ expression [2]: brought about a restimulation | T cell epitope assignment [2]: contain H2k-restricted cytotoxic T cell epitopes

YIKGSGSTANLASSNYFPTP [P26, HPV16 L1 276-295]
T cell epitope assignment [3]: contain a T helper epitope

HGPKATLQDI [E72-11, HPV18 E7 2-11]
reactive CD8-positive T cells (IFNγ, FACScan) [1]: brought about a restimulation | T cell epitope assignment [1]: contain an H2b-restricted cytotoxic T cell epitope

GDSMFFCLRREQLFARHFWN [Q23, HPV18 L1 243-262]
proportion of CD8-positive T cells reactive on the basis of IFNγ expression [2]: brought about a restimulation | T cell epitope assignment [2]: contain H2k-restricted cytotoxic T cell epitopes

QLCLIGCKPPIGEHWGKGSP [P15, HPV16 L1 155-174]
T cell epitope assignment [3]: contain a T helper epitope

WACVGVEVGRGQPLGVGISG [P10, HPV16 L1 100-119]
T cell epitope assignment [3]: contain a T helper epitope

GMHGPKATL [L1474E71-8, HPV18 L1 474 and E7 1-8]
reactive CD8-positive T cells (IFNγ, FACScan) [1]: brought about a restimulation | T cell epitope assignment [1]: contain an H2b-restricted cytotoxic T cell epitope

VTVVDTTRSTNNSLCAAIST [P31, HPV16 L1 331-350]
T cell epitope assignment [3]: contain a T helper epitope

DMVDTGFGAMDFTTLQANKS [P19, HPV16 L1 199-218]
proportion of CD8-positive T cells reactive on the basis of IFNγ expression [4]: brought about a restimulation | T cell epitope assignment [4]: contain H2b-restricted cytotoxic T cell epitopes | T cell epitope assignment [3]: contain a T helper epitope

IFQLCKITLTADVMTYIHSM [P35, HPV16 L1 375-394]
proportion of CD8-positive T cells reactive on the basis of IFNγ expression [4]: brought about a restimulation | T cell epitope assignment [4]: contain H2b-restricted cytotoxic T cell epitopes

NTDDYVTRTSIFYHAGSSRL [Q3, HPV18 L1 23-42]
reactive CD8-positive T cells (IFNγ, FACScan) [1]: brought about a restimulation | T cell epitope assignment [1]: contain an H2b-restricted cytotoxic T cell epitope

PDYLQMSADPYGDSMFFCLR [Q22, HPV18 L1 232-251]
proportion of CD8-positive T cells reactive on the basis of IFNγ expression [2]: brought about a restimulation | T cell epitope assignment [2]: contain H2k-restricted cytotoxic T cell epitopes
